Here are results for five compounds from patent US20220378936A1, “DELIVERY SYSTEM COMPLEXES COMPRISING A PRECIPITATE OF AN ACTIVE AGENT AND METHODS OF USE” (THE UNIVERSITY OF NORTH CAROLINA AT CHAPEL HILL, priority 2019, published 2022).

In data set [1] the test system is CT26 cells. Kind of data set: MTT cytotoxicity assay, CT26. To be noted: Mus musculus; CT26, 24 h incubation. The class given is cell-based. How it is done: (§1) MTT assay was applied to determine in vitro cytotoxicity. CT26 and Hepa1-6 cells (1×10^4/well) were cultured within 96-well plates, respectively. Following one day incubation, 5-Fu, Nano-dUMP and Nano-FdUMP were added to cells for 24 h. […] IC50 was calculated using the GraphPad Prism software.

Data set [2] concerns Hepa1-6 cells. Kind of data set: MTT cytotoxicity assay, Hepa1-6. The class given is cell-based. The conditions noted are these: Mus musculus; Hepa1-6, 24 h incubation. As for the experimental part: as §1
Data set [3] has as its system cells. To be noted: free FdUMP; cited from earlier work.
Data set [4] deals with CT26-FL3 cells. Kind of data set: MTT cytotoxicity assay. The data set is classed as cell-based, mouse.
Procedure: Cytotoxicity of Nano-Folox was estimated using the MTT assay with 3-(4,5-Dimethylthiazol-2-yl)-2,5-diphenyltetrazolium bromide^60. 10,000 CT26-FL3 cells per well were seeded in 96-well plates and incubated for one day. After incubation, cells were added with OxP and Nano-Folox for 24 h under normal growth conditions. Subsequently, cells were added with 20 μL MTT reagent (5 mg/mL in PBS) and incubated for 4 h at 37° C. 150 μL DMSO were used to dissolve the purple formazan products. The results were measured at 570 nm using a microplate reader. The 50% cell growth inhibition (IC50) was estimated using the GraphPad Prism software.
A short description of data set [5]: Pharmacokinetics of platinum in orthotopic CRC mice. The data set is classed as in vivo, mouse. The conditions noted are these: single i.v. injection, one-compartmental model. The source says: (§2) The orthotopic CT26-FL3 colorectal tumor model was established as previously described^31.
The nature of data set [6]: Tissue distribution of Nano-Folox in orthotopic CRC mice (IVIS, ICP-MS). The class given is in vivo, mouse. The conditions noted are these: 8 h after i.v. administration, 1.5 mg/kg platinum. As for the experimental part: as §2
In addition, — 0.05% (wt) of lipophilic carbocyanine DiD (ThermoFisher) was used to formulate the DiD-labeled Nano-Folox (1.5 mg/kg platinum). Following 8 h i.v. injection of DiD-labeled Nano-Folox, major organs and tumors were collected and analyzed using the IVIS® Kinetics Optical System, with the excitation wavelength at 640 nm and the emission wavelength at 670 nm. The concentration of platinum in major organs and tumors was also measured using ICP-MS^8.

Data set [7] in a line: Particle size, zeta potential and morphology of Nano-Folox (Malvern Nano-ZS, TEM). The conditions noted are these: FIG. 2A. As for the experimental part:
The measurements of particle size and zeta potential of Nano-Folox were performed using the Malvern Nano-ZS (Malvern Instruments, UK)^59. The morphology of nanoprecipitates and Nano-Folox was analyzed using transmission electron microscopy (TEM). Briefly, 5 μL Nano-Folox were added on 400-mesh carbon-filmed copper grids (Agar Scientific) for 2 min. The samples were stained with 2% (w/w) uranyl acetate before the analysis using the JEM1230 (JEOL) TEM. Alternatively, the morphology of the core was analyzed without the negative staining.

A short description of data set [8]: Aqueous solubility of stabilized nanoprecipitates. The class given is physicochemical. The conditions noted are these: DOPA-stabilized nanoprecipitates.

For the compound `O=c1[nH]cc(F)c(=O)[nH]1` [5-Fu, 5-fluorouracil], the IC50 in data set [1] and in data set [2] was roughly 70 µM in each case.
Regarding `O=c1[nH]c(=O)n([C@H]2C[C@H](O)[C@@H](COP(=O)(O)O)O2)cc1F` [FdUMP, 5-Fluoro-2′-deoxyuridine 5′-monophosphate], in data set [3], the permeability into cells result is “impermeable into cells”.
In the case of `Nc1nc2c(c(=O)[nH]1)N(C=O)C(CNc1ccc(C(=O)N[C@@H](CCC(=O)O)C(=O)O)cc1)CN2` (stereo partly shown) [FnA, folinic acid], in data set [4] (FnA alone, data not shown), the “proliferation of CT26-FL3 cells” value is on record as “not inhibited”.
Consider `O=C1[O][Pt]2([NH][C@@H]3CCCC[C@H]3[NH]2)[O]C1=O` [OxP, oxaliplatin], for which the IC50 in data set [4] (24 h incubation, read-out: IC50 (50% cell growth inhibition)) was 24 µM. Also, in data set [5], the “half-life (t1/2) of platinum” value was roughly 8 min. Further, in data set [6], the “liver uptake of platinum” value is reported as roughly 35 % ID/g and the “tumor accumulation of platinum” value is reported as roughly 15 % ID/g.
In the case of `Nc1nc(=O)c2c([nH]1)NCC(CNc1ccc(C(=O)NC3CCC(=O)[O][Pt]4([NH]C5CCCCC5[NH]4)[O]C3=O)cc1)N2C=O` (stereo not shown) [Pt(DACH).FnA precipitate, dihydrate(1,2-diaminocyclohexane)platinum(II)-folinic acid], the “particle size of the DOPA-stabilized precipitate” value in data set [7] was roughly 100 nm. Further, the solubility in water result in data set [8] is on record as “poorly soluble in water”.
